Earlier results on one molecule are cited in US20210115493A1, “METHODS FOR DETERMINING A DRUG DOSING REGIMEN” (Clear Creek Bio, Inc., priority 2019, published 2021).

In one data set the test system is solid tumor malignancies. To be noted: administered over a 5-day period followed by a 3-week gap, or once per week for three weeks followed by a 1-week gap.

Turning to `Cc1c(-c2ccc(-c3ccccc3F)cc2)nc2ccc(F)cc2c1C(=O)O` [brequinar, 6-fluoro-2-(2′-fluoro-1,1′biphenyl-4-yl)-3-methyl-4-quinoline carboxylic acid], the “efficacy in treatment of solid tumor malignancies” value in the data set with solid tumor malignancies is “ineffective”. Further, in the data set on mouse model of AML, the “adverse effects of daily administration of high doses” value was “weight loss, anemia, and thrombocytopenia”.
